Results published in patent US8497245B2, “Trypsin-like serine protease inhibitors, their preparation and use as selective inhibitors of the clotting factors IIa and Xa” (The Medicines Company (Leipzig) GmbH, priority 2010, dated 2013).
Where a name gives a salt, the structure may show the parent alone.

Assays:
[1] = target: T1, Subcomponent "s" of Human Complement Component 1 (h C1s) (Homo sapiens, UniProt P09871); assay: Inhibition of human C1s (reference enzyme); format: biochemical; details: S-2314 substrate; read-out: Ki h Cls
T1 construct: purchased Calbiochem
T1 sequence (P09871 438-688 limits assumed): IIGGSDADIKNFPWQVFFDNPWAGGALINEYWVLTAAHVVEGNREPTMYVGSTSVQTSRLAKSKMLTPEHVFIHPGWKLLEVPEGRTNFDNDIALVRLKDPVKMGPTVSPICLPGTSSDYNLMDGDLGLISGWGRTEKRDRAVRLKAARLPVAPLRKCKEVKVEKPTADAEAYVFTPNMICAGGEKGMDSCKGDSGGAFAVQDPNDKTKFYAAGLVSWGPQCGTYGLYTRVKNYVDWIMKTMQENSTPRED
T1 sequence (P09871 16-437 partner limits assumed): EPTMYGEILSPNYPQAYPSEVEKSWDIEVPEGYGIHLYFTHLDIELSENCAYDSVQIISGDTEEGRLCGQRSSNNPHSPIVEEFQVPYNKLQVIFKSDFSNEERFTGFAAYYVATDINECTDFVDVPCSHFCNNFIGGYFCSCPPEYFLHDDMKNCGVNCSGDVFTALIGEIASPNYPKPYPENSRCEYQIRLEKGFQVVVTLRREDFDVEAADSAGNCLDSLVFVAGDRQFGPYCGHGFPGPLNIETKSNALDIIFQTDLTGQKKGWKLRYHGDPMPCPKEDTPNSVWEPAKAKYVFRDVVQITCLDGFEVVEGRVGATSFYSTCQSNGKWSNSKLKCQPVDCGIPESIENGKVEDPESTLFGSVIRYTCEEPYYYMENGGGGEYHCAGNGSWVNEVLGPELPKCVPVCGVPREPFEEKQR
Method in brief: (§1)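 Abs 405 nm (p-NA release from chromogenic substrate) with purified enzyme; equilibrium rates fit to competitive-inhibition equation → Ki, nM; mean of ≥3 runs.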

[2] = target: T2, Human plasma kallikrein (h PK) (Homo sapiens, UniProt P03952); assay: Inhibition of human plasma kallikrein (reference enzyme); format: biochemical; details: S2302 substrate
T2 construct: purchased Enzyme Research Laboratories
T2 sequence (P03952 391-638 limits assumed): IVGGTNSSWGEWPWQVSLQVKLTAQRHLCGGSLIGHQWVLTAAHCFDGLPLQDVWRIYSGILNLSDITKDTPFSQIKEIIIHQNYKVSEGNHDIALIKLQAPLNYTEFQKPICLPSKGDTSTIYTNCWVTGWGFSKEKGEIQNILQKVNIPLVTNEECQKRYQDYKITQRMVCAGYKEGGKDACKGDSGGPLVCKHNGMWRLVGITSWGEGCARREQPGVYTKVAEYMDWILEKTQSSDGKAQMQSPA
T2 sequence (P03952 20-390 partner limits assumed): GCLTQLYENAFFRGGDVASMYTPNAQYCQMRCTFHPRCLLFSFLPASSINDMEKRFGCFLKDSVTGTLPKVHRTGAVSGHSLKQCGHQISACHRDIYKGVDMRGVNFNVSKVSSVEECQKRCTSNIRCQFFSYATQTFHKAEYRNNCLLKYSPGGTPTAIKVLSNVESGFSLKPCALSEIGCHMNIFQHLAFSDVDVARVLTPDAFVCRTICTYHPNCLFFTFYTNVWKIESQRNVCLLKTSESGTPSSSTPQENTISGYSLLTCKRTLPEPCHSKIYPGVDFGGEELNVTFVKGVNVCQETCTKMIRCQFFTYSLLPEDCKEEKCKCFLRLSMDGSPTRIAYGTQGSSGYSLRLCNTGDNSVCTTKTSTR
Method in brief: as §1

[3] = target: T3, human Factor Xa (Homo sapiens, UniProt P00742); assay: Inhibition constants for human factor Xa, chromogenic substrate assay; format: biochemical; details: 25° C., Pefachrome FXa substrate, average of at least three determinations; read-out: Ki h FXa
T3 construct: human Factor Xa from Enzyme Research Laboratories; purchased Enzyme Research Laboratories
T3 sequence (P00742 235-488 limits assumed): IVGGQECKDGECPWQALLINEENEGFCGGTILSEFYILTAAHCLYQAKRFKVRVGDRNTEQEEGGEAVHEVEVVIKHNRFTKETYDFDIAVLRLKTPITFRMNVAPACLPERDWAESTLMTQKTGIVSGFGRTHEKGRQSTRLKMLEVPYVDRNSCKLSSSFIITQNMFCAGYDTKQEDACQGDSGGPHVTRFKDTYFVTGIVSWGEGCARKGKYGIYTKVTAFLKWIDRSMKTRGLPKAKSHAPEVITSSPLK
T3 sequence (P00742 41-179 partner limits assumed): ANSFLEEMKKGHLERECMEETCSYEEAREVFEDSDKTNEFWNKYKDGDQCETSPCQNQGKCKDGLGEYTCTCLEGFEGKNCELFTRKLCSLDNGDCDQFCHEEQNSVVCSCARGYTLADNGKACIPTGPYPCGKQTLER
Method in brief: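 Kinetic chromogenic assay with purified human enzymes in 0.05 M Tris, 0.154 M NaCl, 2% ethanol at pH 8.0. Ki was derived by competitive-inhibition fitting of equilibrium p-NA release rates (A405).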

[4] = target: T4, Human urokinase type plasminogen activator (h u-PA) (Homo sapiens, UniProt P00749); assay: Inhibition of human urokinase type plasminogen activator (reference enzyme); format: biochemical; details: H-Glu-Gly-Arg-pNA substrate
T4 construct: purchased MEDAC GmbH Urokinase HS medac
Method in brief: as §1

[5] = target: T5, Human tissue-type plasminogen activator (h t-PA) (Homo sapiens, UniProt P00750); assay: Inhibition of human tissue-type plasminogen activator (reference enzyme); format: biochemical; details: Pefachrome tPA substrate; read-out: Ki h t-PA
T5 construct: purchased Boehringer Ingelheim Actilyse
T5 sequence (P00750 36-562): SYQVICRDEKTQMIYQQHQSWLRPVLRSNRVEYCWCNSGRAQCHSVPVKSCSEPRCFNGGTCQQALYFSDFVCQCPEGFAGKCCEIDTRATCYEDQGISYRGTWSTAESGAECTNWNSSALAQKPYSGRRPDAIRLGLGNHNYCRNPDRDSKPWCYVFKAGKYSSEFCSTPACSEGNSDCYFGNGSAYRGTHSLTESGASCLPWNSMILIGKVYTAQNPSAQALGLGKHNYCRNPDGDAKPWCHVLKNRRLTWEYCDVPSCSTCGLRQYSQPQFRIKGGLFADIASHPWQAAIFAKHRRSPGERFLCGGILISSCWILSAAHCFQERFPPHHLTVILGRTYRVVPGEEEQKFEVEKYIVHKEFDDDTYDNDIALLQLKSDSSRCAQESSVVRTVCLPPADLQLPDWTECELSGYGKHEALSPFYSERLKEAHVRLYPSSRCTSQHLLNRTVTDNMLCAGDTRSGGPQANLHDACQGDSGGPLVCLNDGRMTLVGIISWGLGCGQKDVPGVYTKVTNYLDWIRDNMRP
Procedure: The equilibrium rates were used to calculate the inhibitor/enzyme dissociation constant (Ki values) by parameter fitting in accordance with the rate equation for competitive inhibition using GraFit (version 4 from Erithacus).
Dissociation constants were calculated as described herein.

[6] = target: T6, Subcomponent "r" of Human Complement Component 1 (h C1r) (Homo sapiens, UniProt P00736); assay: Inhibition of human C1r (reference enzyme); format: biochemical; details: S-2314 substrate; read-out: Ki h Clr
T6 construct: purchased Calbiochem
T6 sequence (P00736 464-705 limits assumed): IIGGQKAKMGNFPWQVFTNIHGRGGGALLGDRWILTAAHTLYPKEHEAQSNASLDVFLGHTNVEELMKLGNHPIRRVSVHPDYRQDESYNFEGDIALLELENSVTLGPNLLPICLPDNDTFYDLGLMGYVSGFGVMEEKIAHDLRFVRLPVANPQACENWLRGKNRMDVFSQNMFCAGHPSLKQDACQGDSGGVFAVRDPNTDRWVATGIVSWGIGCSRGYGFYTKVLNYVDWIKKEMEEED
T6 sequence (P00736 18-463 partner limits assumed): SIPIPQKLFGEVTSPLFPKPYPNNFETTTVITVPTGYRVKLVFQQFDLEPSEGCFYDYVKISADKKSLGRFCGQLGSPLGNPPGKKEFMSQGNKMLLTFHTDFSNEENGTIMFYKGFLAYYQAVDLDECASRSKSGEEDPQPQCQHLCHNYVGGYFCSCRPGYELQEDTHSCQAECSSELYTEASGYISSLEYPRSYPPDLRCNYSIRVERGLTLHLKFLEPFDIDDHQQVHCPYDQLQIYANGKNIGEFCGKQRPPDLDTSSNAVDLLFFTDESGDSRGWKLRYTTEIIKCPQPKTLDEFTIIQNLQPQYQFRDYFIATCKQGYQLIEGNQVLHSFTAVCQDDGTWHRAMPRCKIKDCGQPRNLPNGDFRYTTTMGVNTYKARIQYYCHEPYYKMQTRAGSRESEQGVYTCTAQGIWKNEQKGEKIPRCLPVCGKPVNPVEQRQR
Method in brief: as §1

[7] = target: T7, Human urinary kallikrein (h uKK) (Homo sapiens, UniProt P06870); assay: Inhibition of human urinary kallikrein (reference enzyme); format: biochemical; details: S-2266 substrate
T7 construct: purchased Lee Biosolutions
T7 sequence (P06870 25-262): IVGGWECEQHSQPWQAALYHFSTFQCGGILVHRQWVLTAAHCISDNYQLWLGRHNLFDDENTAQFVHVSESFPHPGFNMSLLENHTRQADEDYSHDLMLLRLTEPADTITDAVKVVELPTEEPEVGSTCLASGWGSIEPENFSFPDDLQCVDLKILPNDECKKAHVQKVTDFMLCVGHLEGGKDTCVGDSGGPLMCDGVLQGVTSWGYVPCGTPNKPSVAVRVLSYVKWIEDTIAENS
Method in brief: as §1

[8] = target: T8, Human Activated Protein C (h aPC) (Homo sapiens, UniProt P04070); assay: Inhibition of human activated protein C (reference enzyme); format: biochemical; details: Pefachrome PCa substrate
T8 construct: purchased Enzyme Research Laboratories
T8 sequence (P04070 212-450 limits assumed): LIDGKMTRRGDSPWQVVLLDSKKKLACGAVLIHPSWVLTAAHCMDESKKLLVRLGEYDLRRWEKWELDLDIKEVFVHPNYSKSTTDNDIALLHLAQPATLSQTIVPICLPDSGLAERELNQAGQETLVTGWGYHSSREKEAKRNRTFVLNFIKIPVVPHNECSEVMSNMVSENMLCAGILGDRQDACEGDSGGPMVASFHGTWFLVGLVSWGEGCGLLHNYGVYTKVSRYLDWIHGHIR
T8 sequence (P04070 43-197 partner limits assumed): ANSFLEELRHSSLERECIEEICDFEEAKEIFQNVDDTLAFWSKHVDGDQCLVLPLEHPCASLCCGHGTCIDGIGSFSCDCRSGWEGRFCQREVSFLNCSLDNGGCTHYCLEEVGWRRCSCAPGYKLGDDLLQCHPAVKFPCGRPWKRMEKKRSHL
Method in brief: as §1

[9] = target: T9, Human plasmin (h plasmin) (Homo sapiens, UniProt P00747); assay: Inhibition of human plasmin (reference enzyme); format: biochemical; details: Chromozym PL substrate
T9 construct: purchased Calbiochem
T9 sequence (P00747 581-810 limits assumed): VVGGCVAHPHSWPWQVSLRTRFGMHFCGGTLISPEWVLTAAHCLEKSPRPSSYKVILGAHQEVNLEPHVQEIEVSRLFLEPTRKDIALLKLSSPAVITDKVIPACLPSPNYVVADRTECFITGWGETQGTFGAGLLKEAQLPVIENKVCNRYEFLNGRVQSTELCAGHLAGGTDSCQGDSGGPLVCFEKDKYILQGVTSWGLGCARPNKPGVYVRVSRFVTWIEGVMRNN
T9 sequence (P00747 97-580 partner limits assumed): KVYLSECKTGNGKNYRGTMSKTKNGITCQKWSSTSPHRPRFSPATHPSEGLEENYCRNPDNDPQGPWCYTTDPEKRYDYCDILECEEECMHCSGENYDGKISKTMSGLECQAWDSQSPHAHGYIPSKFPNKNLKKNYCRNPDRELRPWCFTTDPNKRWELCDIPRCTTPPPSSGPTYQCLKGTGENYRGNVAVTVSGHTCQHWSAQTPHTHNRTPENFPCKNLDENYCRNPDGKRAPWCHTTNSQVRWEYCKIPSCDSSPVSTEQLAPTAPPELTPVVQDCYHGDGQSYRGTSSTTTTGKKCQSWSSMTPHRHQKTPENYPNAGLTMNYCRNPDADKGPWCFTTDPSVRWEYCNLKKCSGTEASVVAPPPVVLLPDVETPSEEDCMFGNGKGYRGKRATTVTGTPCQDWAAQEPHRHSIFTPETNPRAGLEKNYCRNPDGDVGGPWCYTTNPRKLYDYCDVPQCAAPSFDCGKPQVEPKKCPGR
Method in brief: as §1

[10] = target: T10, human factor IIa (human alpha-thrombin) (Homo sapiens, UniProt P00734); assay: Inhibition constants for human factor IIa, chromogenic substrate assay; format: biochemical; details: 25° C., Pefachrome tPA substrate, average of at least three determinations; read-out: Ki h FIIa
T10 construct: human alpha-thrombin from Enzyme Research Laboratories; purchased Enzyme Research Laboratories
Method in brief: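 Absorbance at 405 nm tracked p-nitroaniline liberated by each purified enzyme (human thrombin or human factor Xa) in pH 8.0 TBS containing 0.154 M NaCl and 2% ethanol. Equilibrium rates were fitted by competitive-inhibition kinetics to give Ki; values are means of ≥3 runs.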

[11] = system: thrombin and FXa; details: literature value; cited from earlier work

| SMILES | Ki [1] | Ki [2] | Ki [3] | Ki [4] | Ki [5] | Ki [6] | Ki [7] | Ki [8] | Ki [9] | Ki [10] | FXa/thrombin ratio [11] |
| --- | --- | --- | --- | --- | --- | --- | --- | --- | --- | --- | --- |
| NCc1ccc(Cl)cc1CNC(=O)[C@@H]1CCCN1C(=O)[C@@H](CC(=O)O)NS(=O)(=O)Cc1ccccc1 [Compound 2.46] | > 50 µM | > 50 µM | 1.32 µM | > 50 µM | > 50 µM | > 100 µM | > 20 µM | > 40 µM | > 10 µM | 0.0122 µM |  |
| CN(CC1CCOCC1)C(=O)C[C@@H](NS(=O)(=O)Cc1ccccc1)C(=O)N1CCC[C@H]1C(=O)NCc1cc(Cl)ccc1CN [Compound 2.47, Bzls-D-Asp((tetrahydro-2H-pyran-4-yl)-N-methylmethanamine)-L-Pro-Amb(2-AMe-5-Cl)×2 TFA] | > 100 µM | 0.304 µM | 0.002 µM | > 100 µM | > 50 µM | > 10 µM | > 20 µM | > 100 µM | > 15 µM | 0.00032 µM |  |
| NCc1ccc(Cl)cc1CNC(=O)[C@@H]1CCCN1C(=O)[C@H](N)CCC(=O)N1CCOCC1 [Compound 2.49, H-D-Glu(morpholino)-L-Pro-Amb(2-AMe-5-Cl)×2 TFA] | > 100 µM | > 10 µM | 0.134 µM | > 100 µM | > 100 µM | > 10 µM | > 100 µM | > 10 µM | > 100 µM | 0.008 µM |  |
| NCc1ccc(Cl)cc1CNC(=O)[C@@H]1CCN1C(=O)[C@@H](CC(=O)N1CCNCC1)NS(=O)(=O)Cc1ccccc1 [Compound 2.50, Bzls-D-Asp(piperazinyl)-L-Aze-Amb(2-AMe-5-Cl)×2 TFA] | > 100 µM | 3.34 µM | 0.0052 µM | > 25 µM | > 20 µM | > 100 µM | > 100 µM | > 100 µM | > 15 µM | 0.014 µM |  |
| Cc1cccc(S(=O)(=O)Nc2ccc(C)n(CC(=O)NCCON=C(N)N)c2=O)c1 [RWJ445167] |  |  |  |  |  |  |  |  |  |  | < 0.02 |
| Cn1c(CNc2ccc(C(=N)N)cc2)nc2cc([C@@](C)(NCC(=O)O)C(=O)N3CCCC3)ccc21 [Tanogitran] |  |  |  |  |  |  |  |  |  |  | 0.1 |
